Measurements from ChEMBL document CHEMBL1127311, “Derivatives of 4-(2'-methoxyphenyl)-1-[2'-(N-2"-pyridinyl-p-iodobenzamido)ethyl]pipera zine (p-MPPI) as 5-HT1A ligands” (J Med Chem, 1994).

Molecular target: T1, 5-hydroxytryptamine receptor 1A (Rattus norvegicus, UniProt P19327)
T1 sequence (P19327 whole entry): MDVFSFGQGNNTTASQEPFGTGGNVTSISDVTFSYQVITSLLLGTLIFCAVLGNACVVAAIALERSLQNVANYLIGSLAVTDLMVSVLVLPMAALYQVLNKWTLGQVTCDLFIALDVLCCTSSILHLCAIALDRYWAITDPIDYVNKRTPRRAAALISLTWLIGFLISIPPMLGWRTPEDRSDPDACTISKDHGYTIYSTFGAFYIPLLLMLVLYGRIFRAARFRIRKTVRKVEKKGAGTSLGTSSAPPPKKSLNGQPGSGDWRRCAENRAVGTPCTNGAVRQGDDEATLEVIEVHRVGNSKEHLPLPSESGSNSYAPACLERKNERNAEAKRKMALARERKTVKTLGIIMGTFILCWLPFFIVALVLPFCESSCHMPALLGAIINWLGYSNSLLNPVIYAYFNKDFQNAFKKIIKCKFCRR
Experiment: biochemical
Description: In vitro binding affinity to 5-hydroxytryptamine 1A receptor in rat hippocampal homogenate by [125I](R)-(+)-trans-8-OH-PIPAT displacement.

Structure (SMILES)	Ki [µM]
CCCCc1ccc(C(=O)N(CCN2CCN(c3ccccc3OC)CC2)c2ccccn2)cc1	0.0132
COc1ccccc1N1CCN(CCN(C(=O)c2ccc(N)c(I)c2)c2ccccn2)CC1	0.0177
COc1ccccc1N1CCN(CCN(C(=O)c2ccc(C(C)(C)C)cc2)c2ccccn2)CC1	0.027
COc1ccccc1N1CCN(CCN(C(=O)c2ccc(NC(=O)CCl)cc2)c2ccccn2)CC1	0.022
COc1ccccc1N1CCN(CCN(C(=O)c2cccc(C)c2)c2ccccn2)CC1	0.0161
CCCCCc1ccc(C(=O)N(CCN2CCN(c3ccccc3OC)CC2)c2ccccn2)cc1	0.075

Results, then the molecule that gave them:

Ki [µM]	Structure (SMILES)
0.0818	CCCCCCCc1ccc(C(=O)N(CCN2CCN(c3ccccc3OC)CC2)c2ccccn2)cc1
0.0579	CCCCCCc1ccc(C(=O)N(CCN2CCN(c3ccccc3OC)CC2)c2ccccn2)cc1
0.025	COc1ccccc1N1CCN(CCN(C(=O)c2ccc(N=[N+]=[N-])c(I)c2)c2ccccn2)CC1
0.0103	CCCc1ccc(C(=O)N(CCN2CCN(c3ccccc3OC)CC2)c2ccccn2)cc1
0.01	COc1ccccc1N1CCN(CCN(C(=O)c2ccc(N)cc2)c2ccccn2)CC1
0.0093	CCc1ccc(C(=O)N(CCN2CCN(c3ccccc3OC)CC2)c2ccccn2)cc1
0.0035	COc1ccccc1N1CCN(CCN(C(=O)c2ccc(CCl)cc2)c2ccccn2)CC1
0.0032	COc1ccccc1N1CCN(CCN(C(=O)c2ccc(F)cc2)c2ccccn2)CC1
0.0025	COc1ccccc1N1CCN(CCN(C(=O)c2ccccc2)c2ccccn2)CC1
0.0022	COc1ccccc1N1CCN(CCN(C(=O)c2ccc(C)cc2)c2ccccn2)CC1

Organism: Rattus norvegicus
Experiment: not given

Structure (SMILES)	Kd [µM]
COc1ccccc1N1CCN(CCN(C(=O)c2ccc(F)cc2)c2ccccn2)CC1	0.0003
COc1ccccc1N1CCN(CCN(C(=O)c2ccc(I)cc2)c2ccccn2)CC1	0.0003

Molecular target: T1, 5-hydroxytryptamine receptor 1A
Experiment: biochemical
Remark: another data set of the same source
Description: In vitro binding affinity to 5-hydroxytryptamine 1A receptor using [125I](R)-(+)-trans-8-OH-PIPAT as radioligand in rat hippocampal homogenate

Structure (SMILES)	IC50 [µM]
COc1ccccc1N1CCN(C[C@@H](C(=O)NC(C)(C)C)c2ccccc2)CC1	0.015
